Measurements taken from patent publication US9884818B2, “Sulphamoylpyrrolamide derivatives and the use thereof as medicaments for the treatment of hepatitis B” (Janssen Sciences Ireland UC, priority 2013, dated 2018).
pEC50: −log10 of the molar value.

Key:
HBV [1] = test: Anti-HBV activity, HepG2.117 inducibly HBV producing cell line (Tet-off), intracellular HBV DNA by realtime PCR; assay type: cell-based; details: Hepatitis B virus, HepG2.117, 72 h, HepG2.117 cells, 3 days of treatment, intracellular HBV DNA; read-out: HepG2 117 EC50
HBV [2] = test: Anti-HBV activity, HepG2.2.15 stable transfected cell line, HBV DNA from secreted virions by realtime PCR; assay type: cell-based; details: HepG2.2.15 cells, 6 days of treatment, HBV DNA from secreted virions, read-out: HepG2 2.15 EC50
[3] = Cytotoxicity in HepG2 cells, Resazurin viability assay; details: human, HepG2 cells, HepG2 4 days CC50 (μM), incubated for 4 days, Resazurin assay
[4] = Hepatitis B virus, HepG2.2.15, 144 h

Row | Compound | pEC50 (HBV [1]) | pEC50 (HBV [2]; [4]) | CC50 at 4 days [3] | pEC50 (HBV [2])
1 | C[C@H](CO)NS(=O)(=O)c1cc(C(=O)Nc2ccc(F)c(F)c2)n(C)c1 [Compound 24, N-(3,4-difluorophenyl)-4-[[(1R)-2-hydroxy-1-methyl-ethyl]sulfamoyl]-1-methyl-pyrrole-2-carboxamide] | 6.52 | 6.70 | > 25 µM | 
2 | Cn1cc(S(=O)(=O)NC2(C)COC2)cc1C(=O)Nc1cc(F)c(F)c(Cl)c1 [Compound 59, N-(3-chloro-4,5-difluoro-phenyl)-1-methyl-4-[(3-methyloxetan-3-yl)-sulfamoyl]pyrrole-2-carboxamide] | 7.52 | 7.52 | > 25 µM | 
3 | C[C@@H](NS(=O)(=O)c1cn(C)c(C(=O)Nc2ccc(F)c(C(F)F)c2)c1Cl)C(F)(F)F [Compound 279, 3-chloro-N-[3-(difluoromethyl)-4-fluoro-phenyl]-1-methyl-4-[[(1R)-2,2,2-trifluoro-1-methyl-ethyl]sulfamoyl]pyrrole-2-carboxamide] | 8.30 | > 8.40 | > 25 µM | 
4 | Cn1cc(S(=O)(=O)NC(C)(C)C)c(F)c1C(=O)Nc1ccc(F)c(F)c1F [Compound 213, 4-(tert-Butylsulfamoyl)-3-fluoro-1-methyl-N-(2,3,4-trifluorophenyl)-1H-pyrrole-2-carboxamide] | 6.51 | 6.68 | > 25 µM | 
5 | Cn1cc(S(=O)(=O)NC(C)(C)C)c(Cl)c1C(=O)Nc1ccc(F)c(Cl)c1 [Compound 220, 4-(tert-Butylsulfamoyl)-3-chloro-N-(3-chloro-4-fluorophenyl)-1-methyl-1H-pyrrole-2-carboxamide] | 7.40 | 7.00 | > 25 µM | 
6 | C[C@H](NS(=O)(=O)c1cn(C)c(C(=O)Nc2ccc(F)c(C#N)c2)c1Cl)C(F)(F)F [Compound 225, 3-Chloro-N-(3-cyano-4-fluorophenyl)-1-methyl-4-{[(1S)-2,2,2-trifluoro-1-methylethyl]sulfamoyl}-1H-pyrrole-2-carboxamide] | 7.15 | 7.15 | > 25 µM | 
7 | Cn1cc(S(=O)(=O)NC2(C)CC(F)(F)C2)c(F)c1C(=O)Nc1ccc(F)c(C#N)c1 [Compound 187, N-(3-Cyano-4-fluorophenyl)-4-[(3,3-difluoro-1-methylcyclobutyl)sulfamoyl]-3-fluoro-1-methyl-1H-pyrrole-2-carboxamide] | 8.22 | 8.10 | > 25 µM | 
8 | Cc1c(S(=O)(=O)N[C@H](C)C(F)(F)F)cc(C(=O)Nc2ccc(F)c(Cl)c2F)n1C [Compound 143, N-(3-Chloro-2,4-difluorophenyl)-1,5-dimethyl-4-{[(1R)-2,2,2-trifluoro-1-methylethyl]sulfamoyl}-1H-pyrrole-2-carboxamide] | 6.82 | 7.30 | > 25 µM | 
9 | Cc1c(S(=O)(=O)NC2(C)COC2)cn(C)c1C(=O)Nc1ccc(F)c(C#N)c1 [Compound 152, N-3-Cyano-4-fluoromethyl-4-[(3-methyloxetan-3-yl)sulfamoyl]-1H-pyrrole-2-carboxamide] | 7.10 | 6.62 | > 25 µM | 
10 | Cc1cc(NC(=O)c2cc(S(=O)(=O)NC3(CCO)COC3)cn2C)ccc1F [Compound 14, N-(4-fluoro-3-methyl-phenyl)-4-[[3-(2-hydroxyethyl)oxetan-3-yl]sulfamoyl]-1-methyl-pyrrole-2-carboxamide] | 7.70 | 7.40 | > 25 µM | 
11 | CC(C)NS(=O)(=O)c1cn(C)c(C(=O)Nc2ccc(F)c(C#N)c2F)c1F [Compound 231, N-(3-Cyano-2,4-difluorophenyl)-3-fluoro-1-methyl-4-[(1-methyl-ethyl)sulfamoyl]-1H-pyrrole-2-carboxamide] | 7.52 | 7.40 | > 25 µM | 
12 | Cc1cc(NC(=O)c2cc(S(=O)(=O)N[C@@H](C)C(F)(F)F)cn2C)cc(F)c1F [Compound 104, N-(3,4-Difluoro-5-methylphenyl)-1-methyl-4-{[(1S)-2,2,2-trifluoro-1-methylethyl]sulfamoyl}-1H-pyrrole-2-carboxamide] | 7.70 | 7.70 | > 25 µM | 
13 | Cc1cc(NC(=O)c2cc(S(=O)(=O)NC(C)(C)C)cn2C)cc(F)c1F [Compound 38, 4-(tert-butylsulfamoyl)-N-(3,4-difluoro-5-methyl-phenyl)-1-methyl-pyrrole-2-carboxamide] | 7.70 | 7.30 | > 25 µM | 
14 | Cn1cc(S(=O)(=O)NC(C)(C)C(F)(F)F)cc1C(=O)Nc1ccc(F)c(C#N)c1 [Compound 237, N-(3-Cyano-4-fluorophenyl)-1-methyl-4-[(2,2,2-trifluoro-1,1-di-methylethyl)sulfamoyl]-1H-pyrrole-2-carboxamide] | 7.00 | 7.10 | > 25 µM | 
15 | Cn1cc(S(=O)(=O)NC(C)(C)C)c(F)c1C(=O)Nc1ccc(F)c(F)c1 [Compound 211, 4-(tert-Butylsulfamoyl)-N-(3,4-difluorophenyl)-3-fluoro-1-methyl-1H-pyrrole-2-carboxamide] | 7.40 | 7.40 | > 25 µM | 
16 | Cn1cc(S(=O)(=O)NC2(C(F)(F)F)CCOCC2)cc1C(=O)Nc1ccc(F)c(Cl)c1F [Compound 258, N-(3-chloro-2,4-difluoro-phenyl)-1-methyl-4-[[1-(trifluoromethyl)-tetrahydropyran-4-yl]sulfamoyl]-1H-pyrrole-2-carboxamide] | 7.70 | 7.52 | > 25 µM | 
17 | Cn1cc(S(=O)(=O)NC2CCCC2(F)F)cc1C(=O)Nc1ccc(F)c(Cl)c1F (single isomer, unassigned) [Compound 236a, N-(3-Chloro-2,4-difluorophenyl)-4-{[2,2-difluorocyclopentyl]sulfamoyl}-1-methyl-1H-pyrrole-2-carboxamide] | 7.30 |  | > 25 µM | 7.70
18 | Cn1cc(S(=O)(=O)NC2(C(F)(F)F)CC2)cc1C(=O)Nc1cc(F)c(F)c(Cl)c1 [Compound 72, N-(3-chloro-4,5-difluoro-phenyl)-1-methyl-4-[[1-(trifluoromethyl)-cyclopropyl]sulfamoyl]pyrrole-2-carboxamide] | 8.00 | 8.00 | > 25 µM | 
19 | CC(C)NS(=O)(=O)c1cc(C(=O)Nc2cccc(Cl)c2F)n(C)c1 [Compound 173, N-(3-Chloro-2-fluorophenyl)-1-methyl-4-[(1-methylethyl)sulfamoyl]-1H-pyrrole-2-carboxamide] | 6.49 | 6.68 | > 25 µM | 
20 | CC(C)n1cc(S(=O)(=O)N[C@H](C)C(F)(F)F)c(Cl)c1C(=O)Nc1ccc(F)c(C#N)c1 [Compound 291, 3-chloro-N-(3-cyano-4-fluoro-phenyl)-1-isopropyl-4-[[(1R)-2,2,2-trifluoro-1-methyl-ethyl]sulfamoyl]pyrrole-2-carboxamide] | 6.41 | 6.38 | > 25 µM | 
21 | Cn1cc(S(=O)(=O)NC2(C)COC2)c(Cl)c1C(=O)Nc1ccc(F)c(C#N)c1 [Compound 306, 3-chloro-N-(3-cyano-4-fluoro-phenyl)-1-methyl-4-[(3-methyloxetan-3-yl)sulfamoyl]-pyrrole-2-carboxamide] | 7.22 | 7.52 | > 25 µM | 
